# Measurements published in patent US4530930A, “Antimicrobial 1-ethyl-6,8-difluoro-1,4-dihydro-7-(1-imidazolyl)-4-oxoquinoline-3-carbo xylic acid derivatives” (Kanebo, Ltd., priority 1982, dated 1985).
# Assays:
# [1] = test system: Bacillus subtilis ATCC 6633; test: MIC; assay type: cell-based; conditions: ATCC6633, gram positive
# Description: (§1) In accordance with the method as disclosed in Chemotherapy, Vol. 29, pages 76-79 (1981), MIC (μg/ml) of each test compound was measured.
# [2] = test system: Escherichia coli NIHJ JC-2; test: MIC; assay type: cell-based; conditions: NIHJJC2, gram negative
# Description: as §1
# [3] = test system: Klebsiella pneumoniae PCI-602; test: MIC; assay type: cell-based; conditions: PCI602, gram negative
# Description: as §1
# [4] = test system: Proteus Vulgaris HX-19; test: MIC; assay type: cell-based; conditions: gram negative
# Description: as §1
# [5] = test system: Pseudomonas aeruginosa IFO 3445; test: MIC; assay type: cell-based; conditions: IFO3445, gram negative, read-out: MIC
# Description: as §1
# [6] = test system: Salmonella paratyphi 1015; test: MIC; assay type: cell-based; conditions: Salmonella enterica
# Description: as §1
# [7] = test system: Serratia marcescens IAM 1184; test: MIC; assay type: cell-based; conditions: IAM1184, gram negative
# Description: as §1
# [8] = test system: Staphylococcus aureus FDA 209P JC-1; test: MIC; assay type: cell-based; conditions: FDA209P, gram positive
# Description: as §1
# [9] = test system: Staphylococcus epidermidis; test: MIC; assay type: cell-based; conditions: gram positive
# Description: as §1
# [10] = Bioavailability in oral administration in mice; assay type: in vivo, ddY-strain male mice; conditions: mouse
# Description: Each of the test compounds was suspended in a 0.5% sodium carboxymethylcellulose to prepare a suspension having a concentration of 5 mg/ml of the compound.
# ddY-strain male mice (5 week old, weighing 22 to 25 g, three per group) were used. The suspension was orally administered to mice fasted for 16 hours. The dose of the test compound was adjusted to 50 mg/kg of body weight of animal. 30, 60, 120, and 240 minutes after the administration of the test compound, blood was taken out from each mouse, and the blood sample thus obtained was centrifuged at 3,000 rpm for 20 minutes to obtain a serum sample.
# [11] = Bioavailability in oral administration in rats; assay type: in vivo, Wistar-strain male rats; parameters: AUC at 4 h: concentration or dose not given beside the values; conditions: rat
# Description: Each of the test compounds was suspended in a 0.5% sodium carboxymethylcellulose to prepare a suspension having a concentration of 5 mg/ml of the test compound.
# Wistar-strain male rats (weighing 160 g ±20 g, three per group) were used. The suspension was orally administered to rats fasted 16 hours. 30, 60, 120, and 240 minutes after the administration of the test compound, blood was taken out from the rats. The blood was centrifuged at 3,000 rpm for 20 minutes to obtain a plasma sample. In the same manner as described in Experiment 2, the concentration (μg/ml) of test compound in plasma and also AUC (μg.hr/ml) were measured.
# [12] = test system: ddY-strain male mice; test: in vivo; conditions: mice, p.o., one week, Weil method; 10080 min
# Description: (§2) The acute toxicities in oral administration and intravenous injection of the test compounds were tested as follows:
# (§3) In oral administration: To ddY-strain male mice (weighing 20-25 g, five per group) was administered orally a suspension of each test compound in a 0.5% sodium carboxymethylcellulose. […] J. Biometric Soc., 8, 249 (1959)].
# [13] = test system: ddY-strain male mice; test: in vivo; assay type: in vivo; conditions: 10080 min
# Description: as §2
# In intravenous administration: Each of the test compounds was dissolved in 1N aqueous sodium hydroxide solution and thereto was added a phosphoric acid-saline buffer (pH 7.2) to prepare a test solution. The test solution was intravenously injected to ddy-strain male mice (weighing 20-25 g, five per group). One week after the administration of the test solution, the LD50 was determined in accordance with Weil method.
# [14] = in vivo; conditions: mouse, in vivo, po
# Description: as §2, §3
# [15] = mice, i.v., one week, Weil method
# [16] = serum, mice, oral 50 mg/kg, after 30 min., read-out: Concentration in serum
# [17] = serum, mice, oral 50 mg/kg, after 60 min., read-out: Concentration in serum
# [18] = serum, mice, oral 50 mg/kg, after 120 min., read-out: Concentration in serum
# [19] = serum, mice, oral 50 mg/kg, after 240 min., read-out: Concentration in serum
# [20] = mice, oral 50 mg/kg, serum, 1-4 hrs., read-out: AUC
# [21] = plasma, rats, oral, after 30 min., read-out: Concentration in plasma
# [22] = plasma, rats, oral, after 60 min., read-out: Concentration in plasma
# [23] = plasma, rats, oral, after 120 min., read-out: Concentration in plasma
# [24] = plasma, rats, oral, after 240 min., read-out: Concentration in plasma
# [25] = rats, oral, plasma, 1-4 hrs., read-out: AUC
Compound,MIC [1],MIC [2],MIC [3],MIC [4],MIC [5],MIC [6],MIC [7],MIC [8],MIC [9],"LD50 [13, 15]","concentration at 0.5 h [10, 16]","concentration at 1 h [10, 17]","concentration at 2 h [10, 18]","concentration at 4 h [10, 19]","AUC at 4 h [10, 20]","concentration at 0.5 h [11, 21]","concentration at 1 h [11, 22]","concentration at 2 h [11, 23]","concentration at 4 h [11, 24]","AUC at 4 h [11, 25]",further results
"CCn1cc(C(=O)O)c(=O)c2cc(F)c(N3CCNCC3)c(F)c21 [C, 1-ethyl-6,8-difluoro-1,4-dihydro-4-oxo-7-(1-piperazinyl)quinoline-3-carboxylic acid]",0.39 µg/mL,0.2 µg/mL,0.1 µg/mL,0.1 µg/mL,0.78 µg/mL,0.1 µg/mL,0.78 µg/mL,0.39 µg/mL,3.13 µg/mL,193 mg/kg,,,,,,,,,,,"AUC at 4 h ([10]; in vivo, po, 50 mg/kg): 12400 ng·h/mL; concentration at 0.5 h ([10]; in vivo, po, 50 mg/kg): 6260 ± 1570 ng/mL; concentration at 1 h ([10]; in vivo, po, 50 mg/kg): 3510 ± 1290 ng/mL; concentration at 2 h ([10]; in vivo, po, 50 mg/kg): 3410 ± 670 ng/mL; concentration at 4 h ([10]; in vivo, po, 50 mg/kg): 1530 ± 270 ng/mL; AUC at 4 h ([11]; in vivo, po): 26000 ng·h/mL; concentration at 0.5 h ([11]; in vivo, po): 11700 ± 1100 ng/mL; concentration at 1 h ([11]; in vivo, po): 12300 ± 800 ng/mL; concentration at 2 h ([11]; in vivo, po): 6400 ± 300 ng/mL; concentration at 4 h ([11]; in vivo, po): 2000 ± 1800 ng/mL; LD50 [12]: 1,072 mg/kg"
"CCn1cc(C(=O)O)c(=O)c2cc(F)c(-n3ccnc3)c(F)c21 [I-a, 1-Ethyl-6,8-difluoro-1,4-dihydro-7-(1-imidazolyl)-4-oxoquinoline-3-carboxylic acid]",0.1 µg/mL,0.2 µg/mL,0.05 µg/mL,0.025 µg/mL,6.25 µg/mL,0.05 µg/mL,1.56 µg/mL,0.39 µg/mL,3.13 µg/mL,773 mg/kg,44800 ± 8900 ng/mL,39300 ± 5200 ng/mL,7600 ± 1700 ng/mL,1700 ± 500 ng/mL,64900 ng·h/mL,54900 ± 3900 ng/mL,70800 ± 3100 ng/mL,48000 ± 4300 ng/mL,31300 ± 3600 ng/mL,184000 ng·h/mL,"LD50 at 168 h ([14]; mice, one week, Weil method): > 4000 mg/kg"
"CCn1cc(C(=O)O)c(=O)c2cc(F)c(-n3cnc(C)c3)c(F)c21 [I-b, 1-Ethyl-6,8-difluoro-1,4-dihydro-7-[1-(4-methylimidazolyl)]-4-oxoquinoline-3-carboxylic acid]",0.05 µg/mL,0.39 µg/mL,0.1 µg/mL,0.025 µg/mL,6.25 µg/mL,0.1 µg/mL,3.13 µg/mL,0.78 µg/mL,3.13 µg/mL,,49200 ± 2500 ng/mL,29400 ± 2500 ng/mL,10000 ± 800 ng/mL,6300 ± 1100 ng/mL,67900 ng·h/mL,58700 ± 5300 ng/mL,62900 ± 6000 ng/mL,52000 ± 4000 ng/mL,33500 ± 4900 ng/mL,188000 ng·h/mL,"LD50 at 168 h [14]: > 4000 mg/kg; LD50 ([13]; mouse, in vivo, iv): 593 mg/kg"
"CCn1cc(C(=O)O)c(=O)c2cc(F)c(N3CCN(C)CC3)cc21 [B, 1-ethyl-1,4-dihydro-6-fluoro-7-[1-(4-methylpiperazinyl)]-4-oxoquinoline-3carboxylic acid]",0.2 µg/mL,0.39 µg/mL,0.1 µg/mL,0.1 µg/mL,1.56 µg/mL,0.1 µg/mL,,0.39 µg/mL,0.78 µg/mL,,,,,,,,,,,,
